Measurements from ChEMBL document CHEMBL1201862, “PubChem BioAssay data set” (2004).
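Five compound concentrations were applied to cells in 96-well plates for 48 hours; endpoints were derived by simple linear interpolation of the resulting dose-response curve. Here, GI50 denotes the concentration required for 50% inhibition of growth.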 The source made the active and inactive calls. No stated cut-off is given here; in the data, active = GI50 up to about 1.1 µM and inactive = higher.

Experiments:
Experiment in all cases: NCI tumour cell line growth inhibition, 48 h
U-251 = tested on: U-251
SNB-19 = tested on: SNB-19
K562 = tested on: K562
UACC-257 = tested on: UACC-257
HOP-92 = tested on: HOP-92
M19-MEL = tested on: M19-MEL
UO-31 = tested on: UO-31
RXF 393 = tested on: RXF 393
MDA-MB-435 = tested on: MDA-MB-435
MDA-MB-231 = tested on: MDA-MB-231
NCI/ADR-RES = tested on: NCI/ADR-RES
EKVX = tested on: EKVX
HCC 2998 = tested on: HCC 2998
SW-620 = tested on: SW-620
OVCAR-3 = tested on: OVCAR-3
OVCAR-5 = tested on: OVCAR-5
SF-539 = tested on: SF-539
MDA-N = tested on: MDA-N
SK-OV-3 = tested on: SK-OV-3
SNB-75 = tested on: SNB-75

CC1(C)CC(Nc2ccc(Nc3ccccc3)cc2)CC(C)(C)N1
GI50 (U-251): 26.1 µM (inactive)
GI50 (SNB-19): 50.2 µM (inactive)
GI50 (K562): 13.2 µM (inactive)
GI50 (UACC-257): 14.7 µM (inactive)
GI50 (HOP-92): 12 µM (inactive)
GI50 (M19-MEL): 35.2 µM (inactive)
GI50 (UO-31): 9.48 µM (inactive)
GI50 (RXF 393): 18 µM (inactive)
GI50 (MDA-MB-435): 16.8 µM (inactive)
GI50 (MDA-MB-231): 14.9 µM (inactive)
GI50 (NCI/ADR-RES): 21.9 µM (inactive)
GI50 (EKVX): 34.2 µM (inactive)
GI50 (HCC 2998): 15.7 µM (inactive)
GI50 (SW-620): 21.8 µM (inactive)
GI50 (OVCAR-3): 18.4 µM (inactive)
GI50 (OVCAR-5): 36.2 µM (inactive)
GI50 (SF-539): 15.8 µM (inactive)
GI50 (MDA-N): 17 µM (inactive)
GI50 (SK-OV-3): > 100 µM (inactive)
GI50 (SNB-75): 37.6 µM (inactive)

O=C1C(c2cnc3ccccc3n2)=C(O)c2ccccc21
GI50 (U-251): 58.6 µM (inactive)
GI50 (SNB-19): > 85.3 µM (inactive)
GI50 (K562): > 86.9 µM (inactive)
GI50 (UACC-257): > 71 µM (inactive)
GI50 (HOP-92): > 100 µM (inactive)
GI50 (M19-MEL): > 100 µM (inactive)
GI50 (UO-31): > 100 µM (inactive)
GI50 (RXF 393): 9.71 µM (inactive)
GI50 (MDA-MB-435): 4.19 µM (inactive)
GI50 (MDA-MB-231): > 100 µM (inactive)
GI50 (NCI/ADR-RES): > 100 µM (inactive)
GI50 (EKVX): 19.1 µM (inactive)
GI50 (HCC 2998): 71.8 µM (inactive)
GI50 (SW-620): > 56.2 µM (inactive)
GI50 (OVCAR-3): > 100 µM (inactive)
GI50 (OVCAR-5): > 70.1 µM (inactive)
GI50 (SF-539): > 100 µM (inactive)
GI50 (MDA-N): > 61.4 µM (inactive)
GI50 (SK-OV-3): > 46.5 µM (inactive)
GI50 (SNB-75): 22 µM (inactive)

O=C(Cc1ccccc1)NN1C(=O)C(Cl)C1c1cccc([N+](=O)[O-])c1 (stereo not drawn)
GI50 (U-251): 63.2 µM (inactive)
GI50 (SNB-19): > 92.9 µM (inactive)
GI50 (K562): 21.3 µM (inactive)
GI50 (UACC-257): 36.6 µM (inactive)
GI50 (HOP-92): 14 µM (inactive)
GI50 (M19-MEL): 5.16 µM (inactive)
GI50 (UO-31): 31.7 µM (inactive)
GI50 (RXF 393): 25.6 µM (inactive)
GI50 (EKVX): 34.8 µM (inactive)
GI50 (HCC 2998): > 100 µM (inactive)
GI50 (SW-620): 27.6 µM (inactive)
GI50 (OVCAR-3): 43.4 µM (inactive)
GI50 (OVCAR-5): > 79.1 µM (inactive)
GI50 (SF-539): 80 µM (inactive)
GI50 (SK-OV-3): 90.6 µM (inactive)
GI50 (SNB-75): 0.729 µM (active)

Cc1cccc2c1NC(c1c(C)[nH]c3ccccc13)C2 (stereo not drawn)
GI50 (U-251): > 100 µM (inactive)
GI50 (SNB-19): > 100 µM (inactive)
GI50 (K562): > 100 µM (inactive)
GI50 (UACC-257): > 100 µM (inactive)
GI50 (HOP-92): 1.41 µM (inactive)
GI50 (M19-MEL): > 100 µM (inactive)
GI50 (UO-31): 64.4 µM (inactive)
GI50 (RXF 393): 56.4 µM (inactive)
GI50 (EKVX): 82.6 µM (inactive)
GI50 (HCC 2998): > 100 µM (inactive)
GI50 (SW-620): 68.2 µM (inactive)
GI50 (OVCAR-3): 86.7 µM (inactive)
GI50 (OVCAR-5): > 100 µM (inactive)
GI50 (SF-539): > 100 µM (inactive)
GI50 (SK-OV-3): > 100 µM (inactive)
GI50 (SNB-75): > 100 µM (inactive)

Cc1ccc(N(C(=O)CC(=O)N2N=C(c3ccccc3)C(/N=N/c3ccc([N+](=O)[O-])cc3)C2=O)C(=O)c2ccc(Cl)cc2)cc1 (stereo not drawn)
GI50 (U-251): 6.27 µM (inactive)
GI50 (SNB-19): 17.3 µM (inactive)
GI50 (K562): 24.7 µM (inactive)
GI50 (UACC-257): 30.9 µM (inactive)
GI50 (HOP-92): 22.5 µM (inactive)
GI50 (M19-MEL): 26 µM (inactive)
GI50 (UO-31): 16.3 µM (inactive)
GI50 (RXF 393): 5.16 µM (inactive)
GI50 (EKVX): 99.5 µM (inactive)
GI50 (HCC 2998): 51.2 µM (inactive)
GI50 (SW-620): 21.6 µM (inactive)
GI50 (OVCAR-3): 24 µM (inactive)
GI50 (OVCAR-5): 20.5 µM (inactive)
GI50 (SF-539): 19.8 µM (inactive)
GI50 (SK-OV-3): 12.2 µM (inactive)
GI50 (SNB-75): 10.4 µM (inactive)
